Target: T1, TG2 (transglutaminase-2, transglutaminase type 2) (Homo sapiens, UniProt P21980, K202S/K205S)
T1 sequence (P21980 1-687 K202S/K205S): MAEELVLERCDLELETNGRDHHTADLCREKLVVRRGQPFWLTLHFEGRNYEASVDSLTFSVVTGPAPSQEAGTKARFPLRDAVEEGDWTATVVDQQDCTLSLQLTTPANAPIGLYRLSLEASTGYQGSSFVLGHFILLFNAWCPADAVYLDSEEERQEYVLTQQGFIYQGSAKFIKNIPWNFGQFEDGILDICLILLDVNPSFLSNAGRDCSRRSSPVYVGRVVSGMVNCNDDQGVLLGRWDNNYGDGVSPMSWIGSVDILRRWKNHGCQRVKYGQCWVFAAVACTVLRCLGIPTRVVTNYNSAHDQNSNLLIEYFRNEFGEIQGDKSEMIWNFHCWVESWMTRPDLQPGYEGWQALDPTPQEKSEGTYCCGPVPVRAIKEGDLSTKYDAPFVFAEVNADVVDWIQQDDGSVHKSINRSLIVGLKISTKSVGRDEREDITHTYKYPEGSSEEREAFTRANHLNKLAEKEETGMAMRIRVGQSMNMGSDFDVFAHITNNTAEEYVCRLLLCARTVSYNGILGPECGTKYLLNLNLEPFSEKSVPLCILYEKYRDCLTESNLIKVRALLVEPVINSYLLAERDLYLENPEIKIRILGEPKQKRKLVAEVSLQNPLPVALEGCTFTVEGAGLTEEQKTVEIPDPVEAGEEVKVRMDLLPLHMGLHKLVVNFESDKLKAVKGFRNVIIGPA
Format: biochemical

## Nc1nc2c(ncn2[C@@H]2O[C@H](COP(=O)(O)OP(=O)(O)OP(=O)(O)O)[C@@H](O)[C@H]2O)c(=O)[nH]1 [GTP]
  IC50: 145 ± 23 µM
